Test results taken from patent publication US20110150769A1, “IDENTIFICATION AND USE OF COMPOUNDS FOR TREATING PERSISTENT PAIN” (priority 2009, published 2011).
Entries after “also recorded” stand apart in the source; their conditions may differ.

Experiments:
[1] = test system: acute thermal nociception in mice; test: Tail immersion test (50° C.) after intrathecal injection; assay type: in vivo, mouse; details: naive WT and Mrgpr-clusterΔ−/− mice, 1 mM, 5 μl i.th.
Description: Tail immersion test: mice were gently restrained in a 50-ml conical tube that the mice voluntarily entered. The protruding one third of the tail was then dipped into a 50° C. water bath. Latency to respond to the heat stimulus with vigorous flexion of the tail was measured three times and averaged.
(§1) BAM 8-22 was purchased from Tocris (Bristol, UK) and was suspended in 0.9% saline. The drug was injected intrathecally under brief isoflurane (1.5%) anesthesia to reduce stress. A 30-gauge, 0.5-inch needle connected to a 10-μl syringe was inserted into one side of the L5 or L6 spinous process at an angle of approximately 20° above the vertebral column and slipped into the groove between the spinous and transverse processes. The needle was moved carefully forward to the intervertebral space.
To determine whether intrathecal BAM 8-22 also affected acute thermal nociception, tail-immersion tests in naïve WT and Mrgpr-clusterΔ^−/− mice were performed.

[2] = test system: WDR neurons in the dorsal horn of the spinal cord; test: Electrophysiological recording of WDR neurons, spinal topical application; assay type: in vivo, mouse; details: for A-latency / A-threshold / C-latency / C-threshold: post-BAM 8-22
Description: The electrophysiological recording of WDR neurons in the dorsal horn of the spinal cord was performed by an experimenter blinded to the genotype as previously described in Guan et al., 2006, J. Neurosci., 26:4298-4307. Mice were paralyzed with pancuronium bromide (0.15 mg/kg, i.p.) during neurophysiological recording. Throughout the experiment, anesthesia was maintained with a constant level of isoflurane (1.5%) carried in med-air. A spinal unit with a cutaneous receptive field located in the plantar area of the hind paw was located by applying mechanical stimuli. WDR neurons were defined as those that responded to both innocuous and noxious mechanical stimuli and that had increasing rates of response to increasing intensities of stimuli. Electrical stimuli were applied through a pair of fine needles inserted subcutaneously across the central plantar area of the hind paw 0.3-0.4 cm apart. Extracellular recordings of individual neurons were obtained by using fine-tip (<1.0 μm) paralyn-coated tungsten micro-electrodes ([…] at 1 kHz).
BAM 8-22 or vehicle control was applied directly to the exposed surface of the spinal cord at the recording segment in a volume of 30-50 μl following pre-drug tests. The effects of BAM 8-22 on the spontaneous activity of WDR neurons were examined within 0-10 min after application. The evoked neuronal responses were recorded 10-30 minutes after drug application. Only one neuron in each animal was used to test the drug effects. The post-drug responses were compared with the pre-drug responses, allowing each neuron to act as its own control.
The number of action potentials (APs) evoked by graded electrical stimuli was compared between two genotypes, using a two-way mixed-model analysis of variance (ANOVA) with Fisher's protected least significant difference (LSD) post-hoc test. Student's t-test was used to compare the recording depth, activation threshold and latency of the first A-fiber-mediated and the first C-fiber-mediated responses, respectively, between the two groups. For wind-up, the raw data were the number of APs in the C-component evoked by each stimulus in a train of repetitive electrical stimulation. Since the number of APs in the C-component varies among WDR neurons, the raw data for each neuron were normalized to the first response in each trial (input) and then averaged. A two-way mixed-model ANOVA was used to compare wind-up and the averaged C-component responses to the last 10 stimuli (7th-16th) of the trial between the two genotypes and between pre- and post-drug conditions. Data are presented as mean±standard error of mean (S.E.M). Statistical comparisons were made using unpaired Student's t-test and differences were considered significant at p<0.05.

opioid receptors = details: literature; cited from earlier work
awake mice = test: Spontaneous pain responses after intrathecal injection in awake mice; assay type: in vivo, mouse; details: awake WT and Mrgpr-clusterΔ−/− mice
Description: as §1
Intrathecal injection of BAM 8-22 in awake mice elicited short-term (less than 10 min) spontaneous pain responses.

DRG neurons = test: Calcium imaging of cultured DRG neurons; assay type: cell-based, mouse
Description: Calcium Imaging of Cultured Dorsal Root Ganglia (DRG) Neurons
DRG neurons were plated on poly-D-lysine/laminin-coated coverslips and cultured for 24 hours. […] Briefly, neurons were loaded with Fura 2-acetomethoxy ester (Molecular Probes) for 30 min in dark at room temperature. After washing, neurons were imaged at 340/380 nm excitation to detect intracellular free calcium. All tests were performed with an experimenter blinded to the genotype.

mouse MrgprC11 = biological target: T1, mouse MrgprC11 (Mus musculus, UniProt Q8CIP3); details: Han et al, 2002, Lembo et al.; cited from earlier work
T1 sequence (Q8CIP3 1-322): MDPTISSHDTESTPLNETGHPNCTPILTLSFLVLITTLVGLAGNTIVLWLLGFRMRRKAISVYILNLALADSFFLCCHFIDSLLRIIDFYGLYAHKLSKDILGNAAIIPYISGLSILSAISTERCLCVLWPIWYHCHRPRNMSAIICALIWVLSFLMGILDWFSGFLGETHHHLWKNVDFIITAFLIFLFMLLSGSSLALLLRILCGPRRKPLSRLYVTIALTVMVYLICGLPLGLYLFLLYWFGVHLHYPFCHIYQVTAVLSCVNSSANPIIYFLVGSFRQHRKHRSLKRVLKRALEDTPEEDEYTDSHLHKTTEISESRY

[3] = Mrgpr-clusterΔ−/− mice, 0.1 mM, 30-50 μl

BAM 8-22
tail flick latency vs pre-drug [1]: not significantly different; also recorded: did not significantly change | input value and C-component responses of WDR neurons to 0.5 Hz stimulation ([2]; Mrgpr-clusterΔ−/− mice): significantly increased | input value and C-component responses of WDR neurons to repetitive (0.5 and 1.0 Hz) stimulation [2, 3]: significantly increased | wind-up levels (normalized to the input value) [2, 3]: not increased | C-component responses of WDR neurons to graded electrical stimulation ([2]; Mrgpr-clusterΔ−/− mice, n=17, 0.1 mM, intensities >1.0 mA (2.0-5.0 mA)): significantly increased | A-latency ([2]; Mrgpr-clusterΔ−/−): 12.9 ± 0.6 ms | A-threshold ([2]; Mrgpr-clusterΔ−/−): 0.19 ± 0.03 mA | C-latency ([2]; Mrgpr-clusterΔ−/−): 118 ± 4 ms | C-threshold ([2]; Mrgpr-clusterΔ−/−): 1.9 ± 0.6 mA | windup response after saline wash-out ([2]; WT WDR neuron, 0.5 Hz, 10-30 min after saline wash-out): partially recovered | wind-up / C-component responses to 0.5 Hz and 1.0 Hz stimulation ([2]; WT mice, n=25, 0.1 mM, 30-50 μl): significantly attenuated; also recorded: inhibited | windup of WDR neurons to 0.5 Hz stimulation ([2]; WT mice, n=25, spinal superfusion, 10-30 min after application): significantly attenuated; also recorded: significantly decreased; also recorded: substantially attenuated | A-latency ([2]; Wild-type): 12.1 ± 0.7 ms | A-threshold ([2]; Wild-type): 0.17 ± 0.03 mA | C-latency ([2]; Wild-type): 115 ± 4 ms | C-threshold ([2]; Wild-type): 1.7 ± 0.4 mA | threshold and latency of the first C-fiber-mediated action potential ([2]; either WT or Mrgpr-clusterΔ−/− mice): unaffected | activation of opioid receptors (opioid receptors): but not opioid receptors | duration of spontaneous pain responses elicited by intrathecal injection (awake mice): less than 10 min | responses in DRG neurons (DRG neurons; adult mutant (Mrgpr-clusterΔ−/−) DRG neurons): no responses | percentage of DRG neurons responding, WT vs MrgprA1GFP/GFP mice (DRG neurons; comparison of WT and MrgprA1GFP/GFP mice): did not differ significantly | responses in DRG neurons (DRG neurons; newborn Mrgpr-clusterΔ−/− mice): few or no responses | activation of mouse MrgprC11 (mouse MrgprC11): specifically activates
